Consider 4 compounds from US20080152735A1, “Herbal Extract Having Anti- Influenza Virus Activity and Preparation of Same” (NATIONAL DEFENSE MEDICAL CENTER, priority 2006, published 2008).

One data set relates to influenza virus (H1N1). The experiment in a line: in vitro anti-influenza virus test in MDCK cells, MTT readout. In kind it is cell-based.
For data set [1], the system named is neuraminidase (NA) of influenza virus. The data set is classed as biochemical. Particulars: for FU/min (neuraminidase enzymatic activity in presence of medicament): kit positive control 0.42 FU/min; for activity relative to that of Tamiflu: same dosage 0.5 mg/mL, ratio of FU/min values.
In data set [2] the test system is MDCK cells (Madin-Darby Canine Kidney Epithelial Cells).

Where two headings read alike, the source gives them in different places.

In the case of `NC(=O)c1ncn([C@@H]2O[C@H](CO)[C@@H](O)[C@H]2O)n1` [Ribavirin, reference compound], the “D1 + V” value in the data set with influenza virus (H1N1) (MTT absorbance percentage vs mock control, […], dosage 9.37 μg/mL, MDCK cells, H1N1) is recorded as “+++ (>75≦100 as +++)”.
Turning to `CC(C)=CCc1c(O)cc2oc(-c3ccc(O)cc3)c(O)c(=O)c2c1O` [SOFL-EM-8-6C, licoflavonol], the cell survival rate result was “up to 100%” in the data set on influenza virus (H1N1) (D1+V: infecting with virus one hour after pretreatment with test drug, 10 μg/mL); 75% with influenza virus (H1N1) (DV: cells treated simultaneously with test drug and virus, 10 μg/mL); 100% with influenza virus (H1N1) (V1+D: test drug added one hour after adsorption of virus on cell, 10 μg/mL). Further, the DV entry with influenza virus (H1N1) (MTT absorbance percentage vs mock control, cells treated simultaneously with test drug and virus, dosage 10 μg/mL, MDCK cells, H1N1) is given as “+++ (>75≦100 as +++)”. Also, the “V1 + D” value with influenza virus (H1N1) (MTT absorbance percentage vs mock control, test drug added one hour after adsorption of virus on cell, dosage 10 μg/mL, MDCK cells, H1N1) was “++++ (>100 as ++++)”. Also, in the data set with influenza virus (H1N1) (MTT absorbance percentage vs mock control, virus infection one hour after pretreatment with test drug, dosage 10 μg/mL, MDCK cells, H1N1), the “D1 + V” value is on record as “++++ (>100 as ++++)”. Moreover, the Response result in data set [1] (dosage 0.05 mg/mL) and in data set [1] (dosage 0.5 mg/mL) was “Inhibition” throughout. Besides, the “FU/min (neuraminidase enzymatic activity in presence of medicament)” value (shortened to “FU/min”) in data set [1] (dosage 0.05 mg/mL) is on record as 0.13 FU/min; in data set [1] (dosage 0.5 mg/mL) it was 0.02 FU/min. Also, the “activity relative to that of Tamiflu” value in data set [1] is “two-fold”.
Regarding `O=c1c(O)c(-c2ccc(O)cc2)oc2cc(O)cc(O)c12` [SOFL-EM-8-6S, kaempferol], the D entry in data set [2] is reported as “++++ (key: absorbance percentage≦25 was recorded as +/−; >25≦50 recorded as +; >50≦75 as ++; >75≦100 as +++; >100 as ++++)”. Besides, the cell survival rate result with influenza virus (H1N1) (D1+V: infecting with virus one hour after pretreatment with test drug, 18.75 μg/mL) is “up to 75%”. The “D1 + V” value in the data set on influenza virus (H1N1) (MTT absorbance percentage vs mock control, virus infection one hour after pretreatment with test drug, dosage 18.75 μg/mL, MDCK cells, H1N1) is recorded as “+++ (>75≦100 as +++)”. Further, in data set [1] (dosage 0.5 mg/mL), the Response result is “Inhibition” and the “FU/min” value is on record as 0.06 FU/min. Besides, the “activity relative to that of Tamiflu” value in data set [1] is “six-fold”.
For `CCOC(=O)C1=C[C@@H](OC(CC)CC)[C@H](NC(C)=O)[C@@H](N)C1` [Tamiflu, reference compound], in data set [1] (dosage 0.5 mg/mL), the Response entry is on record as “Inhibition” and the “FU/min” value was 0.01 FU/min.
